This is an account of results in patent publication US20250388605A1, “HETEROBIFUNCTIONAL COMPOUNDS AND METHODS OF TREATING DISEASE” (Halda Therapeutics OpCo, Inc., priority 2022, published 2025).

Experiment [1] concerns T-Rex 293 cell line SC3 cells having increased expression of androgen receptor protein due to exposure to doxycycline. The experiment in a line: Cellular growth inhibition, T-Rex 293 SC3 cells with doxycycline (increased androgen receptor expression), CellTiter-Glo. It is filed as cell-based. As to conditions: T-Rex 293 SC3 cells with 10 ng/mL doxycycline (increased androgen receptor expression), 72 hours, CellTiter-Glo 2.0. The procedure, abridged:
(§1)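 Growth inhibition is measured in an inducible AR-expressing T-Rex 293 clone, SC3, cultured with or without 10 ng/mL doxycycline in hormone-depleted medium. Test compounds are applied for 72 hours. GI50 values derive from CellTiter-Glo 2.0 signal fitted by four-parameter regression.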
Background: Cellular ATP, detected with luciferase, serves as a proxy for viable cell number.

Experiment [2] concerns T-Rex 293 cell line SC cells lacking increased expression of progesterone receptor isoform B protein. Put plainly: Cellular growth inhibition assay, T-Rex 293 SC cells not exposed to doxycycline (no increased progesterone receptor isoform B expression), CellTiter-Glo. It is filed as cell-based. As to conditions: T-Rex 293 SC cells without doxycycline (no increased PR isoform B), 72 hours. On the procedure:
(§2) The SC cells were seeded on poly-D-lysine coated, black clear-bottom 384-well plates at 2500/well, in 25 μL Phenol Red Free Dulbecco's Modified Eagle Medium (DMEM) supplemented with 10% w/w charcoal-dextran treated fetal bovine serum (FBS) and 1% w/w pen-strep, with or without 10 ng/mL doxycycline. Pen-Strep is a commercially available mixture of penicillin G and streptomycin, which is used in mammalian cell culture media to prevent bacterial contamination. Phenol Red Free Dulbecco's Modified Eagle Medium (DMEM) supplemented with 10% w/w charcoal-dextran treated fetal bovine serum (FBS) and 1% w/w pen-strep, with or without 10 ng/mL doxycycline is herein referred to as Treatment Medium. Following seeding of cells in the plates, the plates were spun at 300×g for 30 seconds, then equilibrated to room temperature for 30 minutes, and then deposited in a humidified tissue culture incubator maintained at 37° C. with 5% CO2.
(§3) At 24 hours after seeding of the cells, dilutions of test compound were prepared in DMSO and dissolved in Treatment Medium, to achieve a final DMSO concentration of 0.5% w/w, thereby providing the Test Compound Solution. A 25 μL aliquot of the Test Compound Solution was added to cells in the well plates. An equal volume of a solution containing DMSO and Treatment Medium was used as a negative control. Following treatment of cells with Test Compound Solution or said equal volume of a solution containing DMSO and Treatment Medium, the plates were spun at 300×g for 30 seconds, and then left in an incubator for 72 hours.
(§4) At the end of the treatment duration, cell viability was quantified with CellTiter-Glo 2.0 reagent (Promega Cat #G9243). For this purpose, plates were equilibrated to room temperature for 30 minutes, and then 25 μL of CellTiter-Glo 2.0 reagent was added to cells in the plate wells. Plates were then agitated on a shaker for two minutes at 500 rpm and subsequently incubated at room temperature for 10 minutes. Following incubation, the plates were spun at 3000×g for 30 seconds, then sealed with an optical adhesive cover, and luminescence readings were measured with an EnVision Plate Reader (Perkin Elmer).
(§5) Data was normalized using zero luminescence for baseline. A four-parameter non-linear regression curve fit was applied to dose-response data in GraphPad Prism data analysis software to determine the half-maximal growth inhibitory concentration (GI50) for each test compound.

In experiment [3] the test system is T47D cells. Put plainly: Cellular Growth Inhibition Assay for T47D Cells (CellTiter-Glo). Conditions: 72 hours. Format: cell-based, human. The gist of the method:
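GI50 values derive from four-parameter regression of CellTiter-Glo 2.0 luminescence, using zero luminescence as baseline. Human breast cancer T47D cells (3000/well; DMEM, 10% FBS, 0.2 units/mL insulin) were exposed for 72 h to compound dilutions at 0.5% DMSO, with dosing starting 24 h after seeding.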

For experiment [4], the system named is VCaP cells. The experiment in a line: Cellular growth inhibition assay for VCaP cells, CellTiter-Glo. It is filed as cell-based, human. As to conditions: 72 hours. The gist of the method: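 GI50 values come from four-parameter curve fits of luminescence data normalized to a zero baseline. Compound, in medium with 0.5% DMSO, was added one day after plating and left for 72 h before CellTiter-Glo 2.0 addition.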

Experiment [5] deals with T-Rex 293 cell line SC3 cells lacking increased expression of androgen receptor protein. Put plainly: Cellular growth inhibition, T-Rex 293 SC3 cells without doxycycline (no increased androgen receptor expression), CellTiter-Glo. Format: cell-based. Conditions: T-Rex 293 SC3 cells not exposed to doxycycline (no increased androgen receptor expression), 72 hours. The procedure, abridged: as §1

Experiment [6] deals with T-Rex 293 cell line SC cells having increased expression of progesterone receptor isoform B protein. The experiment in a line: Cellular growth inhibition assay, T-Rex 293 SC cells exposed to doxycycline (increased progesterone receptor isoform B expression), CellTiter-Glo. It is filed as cell-based. As to conditions: T-Rex 293 SC cells with 10 ng/mL doxycycline (increased PR isoform B), 72 hours. As to the method: as §2, §3, §4, §5

Experiment [7] concerns the target T1, BRD4-BD2 (Homo sapiens, UniProt O60885).
T1 construct: made in house; host or cells: T7 phage grown in an E. coli host derived from the BL21 strain
The experiment in a line: Binding affinity to BRD4-BD2 (bromoKdELECT assay). As to conditions: 11-point 3-fold dilution series. On the procedure: (§6) Compounds were tested using a bromoKdELECT assay. T7 phage strains displaying bromodomains were grown in parallel in 24-well blocks in an E. coli host derived from the BL21 strain. E. coli were grown to log-phase and infected with T7 phage from a frozen stock (multiplicity of infection=0.4) and incubated with shaking at 32° C. until lysis (90-150 minutes). The lysates were centrifuged (5,000×g) and filtered ([…]) to remove cell debris. Streptavidin-coated magnetic beads were treated with biotinylated small molecule or acetylated peptide ligands for 30 minutes at room temperature to generate affinity resins for bromodomain assays. The liganded beads were blocked with excess biotin and washed with blocking buffer (SeaBlock (Pierce), 1% BSA, 0.05% Tween 20, 1 mM DTT) to remove unbound ligand and to reduce nonspecific phage binding. Binding reactions were assembled by combining bromodomains, liganded affinity beads, and test compounds in 1× binding buffer (17% SeaBlock, 0.33×PBS, 0.04% Tween 20, 0.02% BSA, 0.004% Sodium azide, 7.4 mM DTT). Test compounds were prepared as 1000× stocks in 100% DMSO. Kds were determined using an 11-point 3-fold compound dilution series with one DMSO control point. All compounds for Kd measurements are distributed by acoustic transfer (non-contact dispensing) in 100% DMSO. The compounds were then diluted directly into the assays such that the final concentration of DMSO was 0.09%. All reactions performed in polypropylene 384-well plates. Each was a final volume of 0.02 ml. The assay plates were incubated at room temperature with shaking for 1 hour and the affinity beads were washed with wash buffer (1×PBS, 0.05% Tween 20). The beads were then resuspended in elution buffer (1×PBS, 0.05% Tween 20, 2 μM non-biotinylated affinity ligand) and incubated at room temperature with shaking for 30 minutes. The bromodomain concentration in the eluates was measured by qPCR.

For experiment [8], the target named is T2, BRD4-BD1 (Homo sapiens, UniProt O60885).
T2 construct: made in house; host or cells: T7 phage grown in an E. coli host derived from the BL21 strain
Put plainly: Binding affinity to BRD4-BD1 (bromoKdELECT assay). As to conditions: 11-point 3-fold dilution series. On the procedure: as §6, with “[…]” for “μM”

Where only a bound is given, the exact number is not on record here.

Usually GI50 stands for the concentration that inhibits growth by half. Consider `CCS(=O)(=O)c1ccc(Oc2ccc(OCC3CCN(c4ncc(C(=O)N[C@H]5C(C)(C)[C@H](Oc6ccc(C#N)c(Cl)c6)C5(C)C)cn4)CC3)cc2)c(-c2cn(C)c(=O)c3[nH]ccc23)c1` [Compound I-213], for which the GI50 in experiment [1], in experiment [2], in experiment [3], in experiment [4], in experiment [5] and in experiment [6] was less than 500 nM in each case.

For the molecule `CCS(=O)(=O)c1ccc(Oc2cccc(CCCCN3CC4(C3)CN(c3ncc(C(=O)N[C@H]5C(C)(C)[C@H](Oc6ccc(C#N)c(Cl)c6)C5(C)C)cn3)C4)c2F)c(-c2cn(C)c(=O)c3[nH]ccc23)c1` [Compound I-206], the GI50 in experiment [1], in experiment [2], in experiment [3] (Homo sapiens), in experiment [4] (Homo sapiens), in experiment [5] and in experiment [6] was less than 500 nM in each case.

For `CN(CCc1ccc(Oc2ccc(C(C)(C)O)cc2-c2cn(C)c(=O)c3[nH]ccc23)cc1)c1ncc(C(=O)N[C@H]2C(C)(C)[C@H](Oc3ccc(C#N)c(Cl)c3)C2(C)C)cn1` [Compound I-198], the GI50 in experiment [1], in experiment [2], in experiment [3] (Homo sapiens), in experiment [4] (Homo sapiens), in experiment [5] and in experiment [6] was less than 500 nM in each case.

As for `Cn1cc(-c2cc(C(C)(C)O)ccc2Oc2ccc(CC3CC4(CCN(c5ncc(C(=O)N[C@H]6C(C)(C)[C@H](Oc7ccc(C#N)c(Cl)c7)C6(C)C)cn5)CC4)C3)cc2)c2cc[nH]c2c1=O` [Compound I-279], the concentration for 50% growth inhibition (GI50) in experiment [1] is less than 500 nM; in experiment [2], more than 3000 nM; in experiment [4] (Homo sapiens), less than 500 nM; in experiment [5] it was more than 3000 nM; in experiment [6] it was less than 500 nM.

For orientation: Kd means the equilibrium constant for the complex coming apart. A lower Kd goes with higher affinity. Turning to `CN(c1ccc(Oc2cccc(OCCOC3CCN(c4ncc(C(=O)N[C@H]5C(C)(C)[C@H](Oc6ccc(C#N)c(Cl)c6)C5(C)C)cn4)CC3)c2)c(-c2cn(C)c(=O)c3[nH]ccc23)c1)S(C)(=O)=O` [Compound I-51], the Kd is 500 to 2500 nM in experiment [7] and more than 2500 nM in experiment [8]. Further, the GI50 in experiment [1], in experiment [4] (Homo sapiens) and in experiment [5] was less than 500 nM in each case.

`CN(c1ccc(Oc2cccc(OCCN3CCN(c4ncc(C(=O)N[C@H]5C(C)(C)[C@H](Oc6ccc(C#N)c(Cl)c6)C5(C)C)cn4)CC3)c2)c(-c2cn(C)c(=O)c3[nH]ccc23)c1)S(=O)(=O)C1CC1` [Compound I-95]: the Kd lay in the range of 50 to 500 nM in experiment [7] and 500 to 2500 nM in experiment [8]. In addition, the GI50 in experiment [1], in experiment [4] (Homo sapiens) and in experiment [5] was less than 500 nM throughout.

On to `CCS(=O)(=O)c1ccc(Oc2cccc(OCCN3CCN(c4ncc(C(=O)N[C@H]5C(C)(C)[C@H](Oc6ccc(C#N)c(Cl)c6)C5(C)C)cn4)CC3)c2F)c(-c2cn(C)c(=O)c3[nH]ccc23)c1` [Compound I-207], for which the GI50 in experiment [1], in experiment [2], in experiment [4], in experiment [5] and in experiment [6] was less than 500 nM each time.

As for `CN(c1ccc(Oc2cccc(OCCOC3CCN(c4ncc(C(=O)N[C@H]5C(C)(C)[C@H](Oc6ccc(C#N)c(Cl)c6)C5(C)C)cn4)CC3)c2)c(-c2cn(C)c(=O)c3[nH]ccc23)c1)S(=O)(=O)C1CC1` [Compound I-49], the figures for the Kd in experiment [7] and in experiment [8] were 500 to 2500 nM and more than 2500 nM, respectively. Besides, the results for the GI50 in experiment [1], in experiment [4] (Homo sapiens) and in experiment [5] were less than 500 nM, less than 500 nM and more than 3000 nM, respectively.

Take `CCS(=O)(=O)Nc1ccc(Oc2cccc(OCCCN3CCN(CCCOC4CCN(c5ncc(C(=O)N[C@H]6C(C)(C)[C@H](Oc7ccc(C#N)c(Cl)c7)C6(C)C)cn5)CC4)CC3)c2)c(-c2cn(C)c(=O)c3[nH]ccc23)c1` [Compound I-10]: the figures for the dissociation constant (Kd) in experiment [7] and in experiment [8] were less than 50 nM and 50 to 500 nM, respectively. Moreover, the GI50 in experiment [1], in experiment [4] (Homo sapiens) and in experiment [5] was less than 500 nM throughout.

As to `Cn1cc(-c2cc(NS(=O)(=O)CC(F)(F)F)ccc2Oc2cccc(OCCOC3CCN(c4ncc(C(=O)N[C@H]5C(C)(C)[C@H](Oc6ccc(C#N)c(Cl)c6)C5(C)C)cn4)CC3)c2F)c2cc[nH]c2c1=O` [Compound I-153], the Kd is less than 50 nM in experiment [7] and 500 to 2500 nM in experiment [8]. Further, the concentration for 50% growth inhibition (GI50) in experiment [1], in experiment [4] (Homo sapiens) and in experiment [5] was less than 500 nM throughout.

Regarding `CCS(=O)(=O)Nc1ccc(Oc2ccc(CCOC3CCN(c4ncc(C(=O)N[C@H]5C(C)(C)[C@H](Oc6ccc(C#N)c(Cl)c6)C5(C)C)cn4)CC3)cc2)c(-c2cn(C)c(=O)c3[nH]ccc23)c1` [Compound I-151], the Kd in experiment [7] was less than 50 nM; in experiment [8], 50 to 500 nM. The GI50 in experiment [1], in experiment [4] (Homo sapiens) and in experiment [5] was less than 500 nM in each case.
